Experimental data taken from US12421218B2, “Substituted pyrazine-carboxamide derivatives” (Boehringer Ingelheim International GmbH, priority 2022, dated 2025).

Target: human metabotropic Glutamate 4 receptor (mGluR4) (Homo sapiens (Human), UniProt Q14833)
Assay: Assay A: In vitro testing of mGluR4 potency (cAMP HTRF, glutamate/forskolin stimulated)
Format: cell-based
Details: HEK293 cells overexpressing human mGluR4; 10 uM L-glutamic acid, 1 uM forskolin
Method: A. In Vitro Testing of mGluR4 Potency
The in vitro activity of the compounds according to the invention may be investigated as follows:
The HEK293 cell overexpressing the human metabotropic Glutamate 4 receptor are thawed at 37° C. and immediately diluted with cell culture medium. After centrifugation, the cell pellet is re-suspended in medium and then distributed from a stirred spinner flask into the wells of the assay plate. The plates are incubated for one hour at room temperature before they are incubated for 24 hours at 37° C./5% CO2. After washing the cells in the plate three times with 80 uL HBSS/HEPES buffer (10 uL buffer remained in the wells after washing), 5 uL per well of compounds diluted in HBSS/HEPES buffer containing 0.2% BSA (final concentration: 0.1%) and 1 mM IBMX (final concentration: 0.5 mM) are added to the wells of the assay plate. Thereafter 5 uL per well of L-Glutamic acid (final concentration: 10 uM), forskolin (final concentration: 1 uM) and 1 mM IBMX (final concentration: 0.5 mM) dissolved in HBSS/HEPES buffer containing 0.2% BSA (final concentration: 0.1%) are added to the assay plate (final DMSO concentration: 1%). […] The emission at 615 nm and 665 nm (Excitation wavelength: 320 nm) are measured on the EnVision™ reader (PerkinElmer). The ratio between the emission at 665 nm and 615 is calculated by the reader. […]

Sequence of human metabotropic Glutamate 4 receptor (mGluR4) (Q14833 33-912): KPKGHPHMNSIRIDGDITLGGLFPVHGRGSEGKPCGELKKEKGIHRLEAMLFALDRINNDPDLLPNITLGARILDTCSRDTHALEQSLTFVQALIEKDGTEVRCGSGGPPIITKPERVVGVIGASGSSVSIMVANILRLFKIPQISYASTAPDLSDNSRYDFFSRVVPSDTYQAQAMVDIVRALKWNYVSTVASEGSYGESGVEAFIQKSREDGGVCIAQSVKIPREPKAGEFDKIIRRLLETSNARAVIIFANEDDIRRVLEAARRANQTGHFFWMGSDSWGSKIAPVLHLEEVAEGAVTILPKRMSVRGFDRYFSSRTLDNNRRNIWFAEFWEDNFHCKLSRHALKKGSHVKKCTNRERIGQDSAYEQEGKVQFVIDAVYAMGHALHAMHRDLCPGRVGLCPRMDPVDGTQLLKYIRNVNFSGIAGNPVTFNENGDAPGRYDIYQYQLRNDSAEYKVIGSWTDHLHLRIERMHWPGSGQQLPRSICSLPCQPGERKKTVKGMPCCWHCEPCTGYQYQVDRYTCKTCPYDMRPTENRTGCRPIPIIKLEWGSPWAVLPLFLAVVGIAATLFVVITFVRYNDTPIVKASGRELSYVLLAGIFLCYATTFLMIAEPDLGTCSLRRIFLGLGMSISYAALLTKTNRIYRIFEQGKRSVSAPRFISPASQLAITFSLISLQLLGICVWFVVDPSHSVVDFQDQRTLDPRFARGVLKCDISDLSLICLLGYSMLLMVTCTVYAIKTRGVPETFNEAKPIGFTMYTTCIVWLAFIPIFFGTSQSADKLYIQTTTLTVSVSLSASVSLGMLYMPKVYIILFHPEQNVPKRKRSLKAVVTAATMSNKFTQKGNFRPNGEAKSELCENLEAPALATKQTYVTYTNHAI

IC50: 4 nM
Structure (SMILES): CCn1c([C@@H](NC(=O)c2cnc(C(F)F)cn2)C(C)C)nc2cc(F)ccc21 [Example 59, 5-(difluoromethyl)-N-[(1S)-1-(1-ethyl-5-fluoro-1H-1,3-benzodiazol-2-yl)-2-methylpropyl]pyrazine-2-carboxamide]
